The results in this text go back to US20060183733A1, “Treating microvasculature diseases with acetyl cholinesterase inhibitors” (priority 2005, published 2006).

Several values for one entry are separate records, joined by “and”; a condition that tells them apart may be missing. Identical values can stand only once. Entries after “also recorded” stand apart in the source; their conditions may differ.

The test system of data set [1] is patients with chronic renal insufficiency. The experiment in a line: Patient case histories: chronic renal insufficiency (serum creatinine, BUN). The data set is classed as in vivo, human. An excerpt: To postpone or avoid the sequelae of chronic renal insufficiency, treatment with acetylcholinesterase inhibitors increase the concentration of acetycholine available to promote blood flow to the renal cortex preventing loss of nephrons and allowing existing renal parenchyma to provide the vital function of the kidney. Just as parasympathetic outflow provide homeostatic neural input to the elimination of function of the intestine, the same parasympathetic innervation provides vasodilatation of the small arterioles supplying the cortex of the kidneys allowing for optimal functioning.

The subject of another data set is patients with lymphedema. The data set is classed as in vivo, human. The conditions noted are these: donepizil 5 mg orally daily. An excerpt: The improvement in perfusion within the small arterioles decreases the hydrostatic pressure at the end arterioles and therefore reduces interstitial fluid accumulation that impedes the return of lymph fluid within the lymphatic vessels. The physics model for this phenomenon makes use of Bernouli's equation and its relationship to a Venturi tube. Hydrostatic pressure proximal to a relative stricture creates a pressure gradient that leads to increased transudation that overwhelms the capacity of the lymphatic system to manage. The vasodilatory effects of the parasympathetic nervous system upon small arterioles produces improved perfusion and lessens the accumulation of lymphedema. A common example of lymphedema occurs following joint replacement surgery with swelling that persists for three to six months and sometimes permanently. Lymphedema following joint replacement surgery slows recovery and creates pain while predisposing to deep vein thrombosis and infection.

Data set [2] has as its system patients with Parkinson's disease. The conditions noted are these: donepizil decreased from 10 mg to 5 mg daily.

Take `COc1cc2c(cc1OC)C(=O)C(CC1CCN(Cc3ccccc3)CC1)C2` (centres unmarked) [donepizil, 1-benzyl-4->(5,6-dimethoxy-1-indanon)-2-yl methylpiperidine]: the serum creatinine was 0.8 in data set [1] (donepizil 5 mg daily one month then 10 mg daily one month, before treatment 1.8); 4.2 in data set [1] (donepizil 5 mg one week then 10 mg daily, two weeks of treatment, 5.5 on admission, on hemodialysis (Parkinson's patient)); 1.0 in data set [1] (donepizil 5 mg orally daily one month after switch from galantamine, 1.8 before any treatment); 1.0 and 1.4 and 1.1 and 1.6 and 0.9 in data set [1] (donepizil 5 mg orally daily, 4 weeks/one month, before treatment 1.7, 1.8, 1.4, 1.6, 1.7); 1.0 and 1.1 in data set [1] (donepizil 5 mg orally daily, about 6 weeks, before treatment b104 1.4, b106 1.8); 1.4 in data set [1] (donepizil 5 mg orally daily, three weeks, before treatment 2.8, on lisinopril). The serum creatinine in data set [1] (donepizil 5 mg orally daily, two to three months, before treatment 1.7, 1.8, 1.7) was 1.1 and 0.9 and 1.2; in data set [1] (donepizil 5 mg orally daily, up to two weeks, before treatment b100 1.6, b106 1.8) it was 1.3; in data set [1] (donepizil 10 mg daily continued for the next month, 5.5 on admission, hemodialysis discontinued), 2.1. Also, the results for the side effects result (in data set [1] (donepizil 5 mg orally daily); in the data set on patients with lymphedema) were “no untoward side effects; also recorded: no evidence of metabolic acidosis or hyperkalemia; also recorded: no adverse side effects” and “suffered symptoms of diarrhea or nausea”, respectively. In addition, the “BUN (blood urea nitrogen)” value in data set [1] (donepizil 5 mg orally daily one month after switch from galantamine, 32 before any treatment) is 14; in data set [1] (donepizil 5 mg orally daily, about 6 weeks, before treatment b104 37, b106 30), 21 and 19; in data set [1] (donepizil 5 mg orally daily, three weeks, before treatment 39), 26; in data set [1] (donepizil 5 mg orally daily, two to three months, before treatment b96 48, b110 35) it was 20 and 19; in data set [1] (donepizil 5 mg orally daily, two weeks, before treatment 30), 22. For the same molecule, in data set [2], the “course after dose reduction” value was “notable deterioration in their motor function and a return of Parkinsonian symptoms”.
